Our source for the inhibition values is ChEMBL document CHEMBL4813977, “Discovery of potent colony-stimulating factor 1 receptor inhibitors by replacement of hinge-binder moieties” (Eur J Med Chem, 2021).

Active and inactive are the calls of the source. The calls are words filed in the database; no cut-off is given here.

In assay [1] the target is T1, Macrophage colony-stimulating factor 1 receptor (Mus musculus) (UniProt P09581).
T1 sequence (whole entry): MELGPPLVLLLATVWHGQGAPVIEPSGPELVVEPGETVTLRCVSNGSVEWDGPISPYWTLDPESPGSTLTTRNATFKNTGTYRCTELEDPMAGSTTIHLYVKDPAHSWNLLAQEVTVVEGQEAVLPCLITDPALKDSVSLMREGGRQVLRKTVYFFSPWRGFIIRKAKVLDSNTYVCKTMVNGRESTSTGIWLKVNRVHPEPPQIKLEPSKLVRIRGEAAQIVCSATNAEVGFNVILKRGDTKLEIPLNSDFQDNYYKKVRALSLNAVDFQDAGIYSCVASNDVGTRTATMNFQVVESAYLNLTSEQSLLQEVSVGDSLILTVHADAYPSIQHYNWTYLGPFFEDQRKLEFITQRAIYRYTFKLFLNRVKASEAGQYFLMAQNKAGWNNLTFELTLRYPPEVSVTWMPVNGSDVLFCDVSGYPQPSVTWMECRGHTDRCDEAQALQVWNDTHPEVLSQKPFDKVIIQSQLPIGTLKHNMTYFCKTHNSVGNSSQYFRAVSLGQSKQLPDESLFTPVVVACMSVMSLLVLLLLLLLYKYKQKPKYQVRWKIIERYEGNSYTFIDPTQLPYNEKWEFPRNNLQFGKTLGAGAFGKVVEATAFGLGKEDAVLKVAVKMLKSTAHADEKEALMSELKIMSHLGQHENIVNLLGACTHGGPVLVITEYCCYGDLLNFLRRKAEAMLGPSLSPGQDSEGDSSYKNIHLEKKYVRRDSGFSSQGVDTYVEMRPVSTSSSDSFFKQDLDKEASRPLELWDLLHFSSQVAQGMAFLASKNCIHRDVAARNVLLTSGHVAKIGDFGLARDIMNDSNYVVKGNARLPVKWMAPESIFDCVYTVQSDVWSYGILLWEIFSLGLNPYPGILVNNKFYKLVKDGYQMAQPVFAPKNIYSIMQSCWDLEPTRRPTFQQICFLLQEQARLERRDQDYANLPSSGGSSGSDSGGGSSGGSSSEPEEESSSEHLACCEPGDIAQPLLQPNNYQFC
Description: Inhibition of CSF1R phosphorylation in mouse RAW 264.7 cells at 10 to 100 nM preincubated for 5 hrs followed by CSF stimulation for 10 mins by Western blot analysis. The class given is cell-based. Conditions: RAW264.7, dose 10-100 nM, time 310.0 min.

In assay [2] the target is Receptor-type tyrosine-protein kinase FLT3 (Homo sapiens) (UniProt P36888). Conditions: dose 100.0 nM.
Receptor-type tyrosine-protein kinase FLT3 (Homo sapiens), sequence (P36888 whole entry): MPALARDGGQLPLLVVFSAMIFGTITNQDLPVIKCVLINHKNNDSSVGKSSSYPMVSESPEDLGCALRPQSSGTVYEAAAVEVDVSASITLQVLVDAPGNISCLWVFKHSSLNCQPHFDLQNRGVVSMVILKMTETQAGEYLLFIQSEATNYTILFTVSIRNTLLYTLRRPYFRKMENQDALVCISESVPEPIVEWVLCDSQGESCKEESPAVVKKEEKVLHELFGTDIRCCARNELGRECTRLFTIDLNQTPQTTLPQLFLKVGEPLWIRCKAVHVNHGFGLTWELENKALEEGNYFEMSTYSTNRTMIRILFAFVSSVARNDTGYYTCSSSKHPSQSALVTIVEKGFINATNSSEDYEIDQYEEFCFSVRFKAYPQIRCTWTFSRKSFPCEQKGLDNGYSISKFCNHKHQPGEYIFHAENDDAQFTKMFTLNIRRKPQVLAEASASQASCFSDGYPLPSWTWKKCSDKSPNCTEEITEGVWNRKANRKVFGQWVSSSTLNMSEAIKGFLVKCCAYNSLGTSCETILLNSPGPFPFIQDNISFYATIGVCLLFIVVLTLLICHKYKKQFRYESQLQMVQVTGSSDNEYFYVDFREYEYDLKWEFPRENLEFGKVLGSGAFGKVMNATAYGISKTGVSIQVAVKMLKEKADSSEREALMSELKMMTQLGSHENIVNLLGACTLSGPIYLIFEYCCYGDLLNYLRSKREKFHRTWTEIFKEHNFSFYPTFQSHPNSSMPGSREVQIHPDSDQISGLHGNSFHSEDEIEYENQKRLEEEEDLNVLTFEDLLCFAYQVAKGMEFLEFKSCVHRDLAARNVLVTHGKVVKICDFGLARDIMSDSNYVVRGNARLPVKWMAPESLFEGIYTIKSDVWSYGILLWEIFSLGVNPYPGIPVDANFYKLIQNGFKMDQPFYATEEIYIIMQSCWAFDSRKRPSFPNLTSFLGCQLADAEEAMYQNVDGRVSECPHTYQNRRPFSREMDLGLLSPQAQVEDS
The target of assay [3] is ALK tyrosine kinase receptor (Homo sapiens) (UniProt Q9UM73). As to the kind of experiment: Inhibition of human ALK at 0.1 uM using poly[Glu:Tyr] (4:1) as substrate in presence of [gamma-33P]-ATP by radiometric assay relative to control.
ALK tyrosine kinase receptor (Homo sapiens), sequence (Q9UM73 19-1620 limits assumed): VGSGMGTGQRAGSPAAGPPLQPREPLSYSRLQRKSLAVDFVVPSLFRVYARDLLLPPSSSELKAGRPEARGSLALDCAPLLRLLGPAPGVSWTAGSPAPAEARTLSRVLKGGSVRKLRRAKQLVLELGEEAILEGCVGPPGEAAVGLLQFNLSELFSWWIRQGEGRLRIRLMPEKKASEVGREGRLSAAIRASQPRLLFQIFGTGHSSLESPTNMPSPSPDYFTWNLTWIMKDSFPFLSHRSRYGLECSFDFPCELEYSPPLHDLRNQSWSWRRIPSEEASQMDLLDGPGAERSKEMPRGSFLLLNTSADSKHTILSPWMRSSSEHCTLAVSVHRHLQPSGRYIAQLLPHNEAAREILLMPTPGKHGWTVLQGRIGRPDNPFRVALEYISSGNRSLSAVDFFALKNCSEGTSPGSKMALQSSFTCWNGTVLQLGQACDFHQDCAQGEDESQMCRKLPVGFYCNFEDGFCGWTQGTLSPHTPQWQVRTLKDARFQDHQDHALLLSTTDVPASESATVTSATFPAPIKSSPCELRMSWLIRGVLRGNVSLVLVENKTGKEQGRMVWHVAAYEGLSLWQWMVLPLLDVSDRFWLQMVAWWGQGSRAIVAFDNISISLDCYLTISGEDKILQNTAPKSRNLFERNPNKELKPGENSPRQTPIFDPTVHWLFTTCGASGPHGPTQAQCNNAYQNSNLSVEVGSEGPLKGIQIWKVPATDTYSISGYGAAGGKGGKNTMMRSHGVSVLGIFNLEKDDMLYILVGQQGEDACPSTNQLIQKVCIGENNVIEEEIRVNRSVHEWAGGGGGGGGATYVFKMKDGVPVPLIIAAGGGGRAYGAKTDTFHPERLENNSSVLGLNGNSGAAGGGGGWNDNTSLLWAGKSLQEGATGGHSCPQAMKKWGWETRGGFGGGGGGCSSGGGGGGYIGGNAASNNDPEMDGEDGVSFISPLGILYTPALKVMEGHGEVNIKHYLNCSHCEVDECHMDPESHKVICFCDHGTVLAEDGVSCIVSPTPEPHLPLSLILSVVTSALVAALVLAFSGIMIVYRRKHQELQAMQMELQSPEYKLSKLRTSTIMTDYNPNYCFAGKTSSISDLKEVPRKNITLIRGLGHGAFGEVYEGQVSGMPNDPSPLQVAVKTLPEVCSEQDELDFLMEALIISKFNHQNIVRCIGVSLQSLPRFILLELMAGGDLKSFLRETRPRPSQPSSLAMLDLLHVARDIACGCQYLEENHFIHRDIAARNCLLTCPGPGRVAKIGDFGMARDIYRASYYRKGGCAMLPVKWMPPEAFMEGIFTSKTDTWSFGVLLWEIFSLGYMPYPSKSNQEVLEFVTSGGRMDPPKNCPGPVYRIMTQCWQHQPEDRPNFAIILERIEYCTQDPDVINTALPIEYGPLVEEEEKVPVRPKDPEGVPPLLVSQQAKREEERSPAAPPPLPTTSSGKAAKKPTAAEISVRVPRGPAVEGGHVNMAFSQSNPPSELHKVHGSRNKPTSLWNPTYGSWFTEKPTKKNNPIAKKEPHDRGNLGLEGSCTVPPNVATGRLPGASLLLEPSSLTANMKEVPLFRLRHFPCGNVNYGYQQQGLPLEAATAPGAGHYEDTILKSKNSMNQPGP
Assay [4] concerns the target Epidermal growth factor receptor (Homo sapiens) (UniProt P00533). As to the kind of experiment: Inhibition of human EGFR at 0.1 uM using poly[Glu:Tyr] (4:1) as substrate in presence of [gamma-33P]-ATP by radiometric assay relative to control.
Assay [5] deals with Tyrosine-protein kinase JAK2 (Homo sapiens) (UniProt O60674). Description: Inhibition of human JAK2 at 0.1 uM using poly[Glu:Tyr] (4:1) as substrate in presence of [gamma-33P]-ATP by radiometric assay relative to control.
Assay [6] addresses Tyrosine-protein kinase Lyn (Homo sapiens) (UniProt P07948). As to the kind of experiment: Inhibition of human LYN at 0.1 uM using poly[Glu:Tyr] (4:1) as substrate in presence of [gamma-33P]-ATP by radiometric assay relative to control.
For assay [7], the target named is Tyrosine-protein kinase ABL1 (Homo sapiens) (UniProt P00519). Description: Inhibition of human ABL1 at 0.1 uM using EAIYAAPFAKKK as substrate in presence of [gamma-33P]-ATP by radiometric assay relative to control.
The target of assay [8] is Receptor-type tyrosine-protein kinase FLT3 (Homo sapiens) (UniProt P36888). Conditions: dose 10.0 nM.
The target in assay [9] is Mast/stem cell growth factor receptor Kit (Homo sapiens) (UniProt P10721). Conditions: dose 10.0 nM.
Mast/stem cell growth factor receptor Kit (Homo sapiens), sequence (P10721 whole entry): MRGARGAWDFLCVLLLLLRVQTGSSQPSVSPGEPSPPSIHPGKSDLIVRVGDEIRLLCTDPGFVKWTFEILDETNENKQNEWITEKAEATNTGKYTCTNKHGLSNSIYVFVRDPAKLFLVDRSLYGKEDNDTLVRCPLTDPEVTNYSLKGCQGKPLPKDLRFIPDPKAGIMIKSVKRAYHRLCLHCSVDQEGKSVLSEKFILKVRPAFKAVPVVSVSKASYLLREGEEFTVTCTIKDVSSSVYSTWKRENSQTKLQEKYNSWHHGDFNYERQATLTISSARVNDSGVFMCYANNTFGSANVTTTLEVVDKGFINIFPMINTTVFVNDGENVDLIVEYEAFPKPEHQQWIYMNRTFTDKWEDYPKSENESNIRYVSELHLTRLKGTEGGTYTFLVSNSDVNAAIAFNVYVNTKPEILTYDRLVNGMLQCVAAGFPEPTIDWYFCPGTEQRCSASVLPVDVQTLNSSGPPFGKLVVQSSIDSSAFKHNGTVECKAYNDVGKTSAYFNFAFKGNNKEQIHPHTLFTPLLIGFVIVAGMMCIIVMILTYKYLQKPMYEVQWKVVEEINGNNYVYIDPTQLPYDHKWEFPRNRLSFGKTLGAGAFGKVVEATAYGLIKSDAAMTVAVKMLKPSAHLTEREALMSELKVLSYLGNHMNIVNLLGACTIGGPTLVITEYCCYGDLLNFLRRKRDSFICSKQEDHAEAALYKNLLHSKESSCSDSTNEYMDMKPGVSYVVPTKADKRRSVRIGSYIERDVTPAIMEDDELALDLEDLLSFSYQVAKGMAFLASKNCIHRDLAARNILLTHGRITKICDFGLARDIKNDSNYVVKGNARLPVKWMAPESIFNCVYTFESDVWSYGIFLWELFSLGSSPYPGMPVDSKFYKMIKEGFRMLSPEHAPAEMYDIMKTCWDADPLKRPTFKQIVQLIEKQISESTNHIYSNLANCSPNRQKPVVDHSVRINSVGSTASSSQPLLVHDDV
Description: Inhibition of human c-KIT at 10 nM using poly[Glu:Tyr] (4:1) as substrate in presence of [gamma-33P]-ATP by radiometric assay relative to control
Assay [10] has as its target Non-receptor tyrosine-protein kinase TYK2 (Homo sapiens) (UniProt P29597). As to the kind of experiment: Inhibition of human TYK2 at 0.1 uM using KKSRGDYMTMQIG as substrate in presence of [gamma-33P]-ATP by radiometric assay relative to control.
The species entered for assay [11] is Homo sapiens. As to the kind of experiment: Inhibition of human PKA at 0.1 uM using LCGRTGRRNSI as substrate in presence of [gamma-33P]-ATP by radiometric assay relative to control.
The target in assay [12] is Macrophage colony-stimulating factor 1 receptor (Homo sapiens) (UniProt P07333). Conditions: dose 100.0 nM.
Macrophage colony-stimulating factor 1 receptor (Homo sapiens), sequence (P07333 whole entry): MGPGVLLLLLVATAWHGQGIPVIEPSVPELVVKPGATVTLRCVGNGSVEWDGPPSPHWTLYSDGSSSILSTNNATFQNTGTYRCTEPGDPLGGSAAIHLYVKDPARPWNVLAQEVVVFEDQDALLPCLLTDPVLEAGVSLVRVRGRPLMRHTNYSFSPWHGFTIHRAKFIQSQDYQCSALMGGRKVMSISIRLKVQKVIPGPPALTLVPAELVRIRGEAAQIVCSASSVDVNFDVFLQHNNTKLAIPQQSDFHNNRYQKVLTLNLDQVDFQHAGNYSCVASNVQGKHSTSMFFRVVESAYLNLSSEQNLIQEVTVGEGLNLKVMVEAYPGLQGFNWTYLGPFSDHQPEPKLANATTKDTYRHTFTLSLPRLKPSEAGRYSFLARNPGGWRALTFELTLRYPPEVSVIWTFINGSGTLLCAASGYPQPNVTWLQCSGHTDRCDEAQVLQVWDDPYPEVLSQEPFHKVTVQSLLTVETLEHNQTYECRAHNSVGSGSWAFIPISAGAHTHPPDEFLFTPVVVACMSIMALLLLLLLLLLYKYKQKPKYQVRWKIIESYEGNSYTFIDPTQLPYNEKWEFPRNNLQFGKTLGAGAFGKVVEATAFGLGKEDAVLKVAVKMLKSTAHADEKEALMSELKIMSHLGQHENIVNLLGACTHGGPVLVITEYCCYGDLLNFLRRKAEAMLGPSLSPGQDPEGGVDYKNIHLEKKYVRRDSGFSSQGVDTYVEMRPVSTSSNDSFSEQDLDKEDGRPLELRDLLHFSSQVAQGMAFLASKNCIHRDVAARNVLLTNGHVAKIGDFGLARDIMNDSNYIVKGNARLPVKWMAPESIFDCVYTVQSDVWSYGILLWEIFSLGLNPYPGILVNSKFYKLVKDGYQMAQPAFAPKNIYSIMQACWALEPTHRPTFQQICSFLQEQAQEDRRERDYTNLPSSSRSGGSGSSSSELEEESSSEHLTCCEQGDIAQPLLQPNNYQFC
Description: Inhibition of human CSF1R at 100 nM using poly[Glu:Tyr] (4:1) as substrate in presence of [gamma-33P]-ATP by radiometric assay relative to control
Assay [13] addresses Mast/stem cell growth factor receptor Kit (Homo sapiens) (UniProt P10721). Conditions: dose 100.0 nM.
Description: Inhibition of human c-KIT at 100 nM using poly[Glu:Tyr] (4:1) as substrate in presence of [gamma-33P]-ATP by radiometric assay relative to control
Assay [14] has as its target Mitogen-activated protein kinase 1 (Homo sapiens) (UniProt P28482). Description: Inhibition of human ERK2 at 0.1 uM using MBP as substrate in presence of [gamma-33P]-ATP by radiometric assay relative to control.
Assay [15] addresses Macrophage colony-stimulating factor 1 receptor (Homo sapiens) (UniProt P07333). Conditions: dose 10.0 nM.
Description: Inhibition of human CSF1R at 10 nM using poly[Glu:Tyr] (4:1) as substrate in presence of [gamma-33P]-ATP by radiometric assay relative to control
The target in assay [16] is Tyrosine-protein kinase Lck (Homo sapiens) (UniProt P06239). As to the kind of experiment: Inhibition of human LCK at 0.1 uM using poly[Glu:Tyr] (4:1) as substrate jn presence of [gamma-33P]-ATP by radiometric assay relative to control.
Assay [17] addresses T2, Tyrosine-protein kinase JAK3 (Homo sapiens) (UniProt P52333).
T2 sequence (whole entry): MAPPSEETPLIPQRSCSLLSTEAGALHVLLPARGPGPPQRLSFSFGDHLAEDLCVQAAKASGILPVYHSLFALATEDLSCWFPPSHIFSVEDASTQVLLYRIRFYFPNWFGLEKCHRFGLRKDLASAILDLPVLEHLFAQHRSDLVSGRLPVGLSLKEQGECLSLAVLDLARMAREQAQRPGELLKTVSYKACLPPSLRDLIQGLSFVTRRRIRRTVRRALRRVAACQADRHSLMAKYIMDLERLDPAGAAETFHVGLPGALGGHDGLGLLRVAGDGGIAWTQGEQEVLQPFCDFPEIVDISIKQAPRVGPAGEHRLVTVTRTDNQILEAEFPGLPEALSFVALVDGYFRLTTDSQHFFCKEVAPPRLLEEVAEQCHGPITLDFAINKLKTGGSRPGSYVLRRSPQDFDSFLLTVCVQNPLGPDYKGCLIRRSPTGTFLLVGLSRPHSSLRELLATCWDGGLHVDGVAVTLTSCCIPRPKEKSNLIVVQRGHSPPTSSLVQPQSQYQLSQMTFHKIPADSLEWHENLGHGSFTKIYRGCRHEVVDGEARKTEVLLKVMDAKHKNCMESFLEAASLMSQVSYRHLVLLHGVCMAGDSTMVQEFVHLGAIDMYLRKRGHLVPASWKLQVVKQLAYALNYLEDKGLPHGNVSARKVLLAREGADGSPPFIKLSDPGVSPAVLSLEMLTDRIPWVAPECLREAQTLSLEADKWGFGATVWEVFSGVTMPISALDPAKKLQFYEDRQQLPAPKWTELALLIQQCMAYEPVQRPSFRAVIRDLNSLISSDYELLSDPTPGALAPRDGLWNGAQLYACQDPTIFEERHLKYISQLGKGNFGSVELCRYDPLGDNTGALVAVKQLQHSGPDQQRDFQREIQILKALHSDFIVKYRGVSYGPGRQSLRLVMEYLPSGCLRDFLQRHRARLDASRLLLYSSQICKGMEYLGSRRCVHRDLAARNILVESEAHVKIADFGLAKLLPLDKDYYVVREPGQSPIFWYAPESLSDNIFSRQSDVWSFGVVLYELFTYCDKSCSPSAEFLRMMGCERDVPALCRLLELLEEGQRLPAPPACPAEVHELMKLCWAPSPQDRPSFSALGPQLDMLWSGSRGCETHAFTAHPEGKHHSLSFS
Description: Inhibition of human JAK3 at 0.1 uM using GGEEEEYFELVKKKK as substrate in presence of [gamma-33P]-ATP by radiometric assay relative to control.

The target in assay [18] is Dual specificity mitogen-activated protein kinase kinase 1 (Homo sapiens) (UniProt Q02750). Description: Inhibition of human MEK1 at 0.1 uM using ERK2 (K52R) as substrate in presence of [gamma-33P]-ATP by radiometric assay relative to control.
Dual specificity mitogen-activated protein kinase kinase 1 (Homo sapiens), sequence (Q02750 whole entry): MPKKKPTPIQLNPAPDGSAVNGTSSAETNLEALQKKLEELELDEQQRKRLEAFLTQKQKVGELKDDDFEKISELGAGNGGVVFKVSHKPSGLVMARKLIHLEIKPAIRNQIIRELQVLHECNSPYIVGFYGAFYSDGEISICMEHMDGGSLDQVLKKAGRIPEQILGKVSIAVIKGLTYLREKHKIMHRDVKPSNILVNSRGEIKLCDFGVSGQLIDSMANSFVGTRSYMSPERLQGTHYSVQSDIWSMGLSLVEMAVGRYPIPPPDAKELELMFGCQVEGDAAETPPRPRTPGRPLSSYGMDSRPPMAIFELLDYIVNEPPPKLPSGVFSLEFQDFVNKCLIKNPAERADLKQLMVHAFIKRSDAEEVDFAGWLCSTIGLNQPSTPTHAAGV
The target in assay [19] is Serine/threonine-protein kinase B-raf (Homo sapiens) (UniProt P15056). As to the kind of experiment: Inhibition of human BRAF at 0.1 uM using MEK1 (K97R) as substrate in presence of [gamma-33P]-ATP by radiometric assay relative to control.

In the case of `Cc1ccc(NC(=O)c2ccc(C(F)(F)F)nc2)cc1NC(=O)c1cnc2ccccn12`, in assay [1], the inhibition entry was “Active”. Also, the inhibition was 4% in [2]; 41% in assay [3]; 60% in assay [4]; 0% in assay [5]; 93% in [6]; 79% in [7]. Moreover, the inhibition stood at 3% in assay [8]; 35% in assay [9]; 16% in assay [10]; 42% in assay [11]; 97% in [12]; 58% in assay [13]. Besides, the inhibition amounted to 0% in assay [14]; 87% in assay [15]; 75% in assay [16]; 0% in [17]; 30% in assay [18]; 39% in assay [19].
